Patent US20110229505A1, “Methods for the diagnosis and treatment of cancer based on AVL9” (IMMATICS BIOTECHNOLOGIES GMBH, priority 2010, published 2011)

System: CD8+ T cells of healthy HLA-A*24 donors
Assay: In vitro immunogenicity for MHC class I presented peptides (aAPC priming, A*2402 multimer staining)
Type: cell-based, human
Details: in vitro priming of CD8+ T cells with peptide-loaded HLA-A*2402/anti-CD28 beads, three stimulation cycles
Protocol: CD8 T cells were either directly enriched from the leukapheresis product or PBMCs (peripheral blood mononuclear cells) were isolated first by using standard gradient separation medium (PAA, Cölbe, Germany). Isolated CD8 lymphocytes or PBMCs were incubated until use in T-cell medium (TCM) consisting of RPMI-Glutamax (Invitrogen, Karlsruhe, Germany) supplemented with 10% heat inactivated human AB serum (PAN-Biotech, Aidenbach, Germany), 100 U/ml Penicillin/100 μg/ml Streptomycin (Cambrex, Cologne, Germany), 1 mM sodium pyruvate (CC Pro, Oberdorla, Germany), 20 μg/ml Gentamycin (Cambrex). […] Isolation of CD8+ lymphocytes was performed by positive selection using CD8 MicroBeads (Miltenyi Biotec, Bergisch-Gladbach, Germany).
800.000 beads/200 μl were coated in 96-well plates in the presence of 600 ng biotin anti-CD28 plus 200 ng relevant biotin-pMHC (high density beads). Stimulations were initiated in 96-well plates by co-incubating 1×10^6 CD8+ T cells with 2×10^5 washed coated beads in 200 μl TCM supplemented with 5 ng/ml IL-12 (PromoCell) for 3-4 days at 37° C. […] Peptide specific cells were calculated as percentage of total CD8+ cells. […] In vitro priming of specific multimer+ CD8+ lymphocytes was detected by appropriate gating and by comparing to negative control stimulations.

1 (FYISPVNKL; listed as Homo sapiens) [compound 1]
Positive donors/donors tested [%] (among evaluable donors): 100% | Positive wells/wells tested [%] (among evaluable wells): 50%
